Experimental data: patent US20080311214A1, “Polymerized solid lipid nanoparticles for oral or mucosal delivery of therapeutic proteins and peptides” (Transgene Biotek Limited, priority 2006, published 2008)

Test system: STZ induced diabetic rats
Experiment: Reduction in serum glucose in STZ induced diabetic rats
Format: in vivo, Wistar rats
Conditions: 10 IU/Kg insulin via subcutaneous route
Protocol: Wistar rats (150-200 g) of both sexes were obtained from National Institute of Nutrition, Hyderabad. The animals were housed at a room temperature of 22±2° C. with 12 h light/dark cycle and 45-50% relative humidity. The animals had ad libitum access to a standard chow diet (Nutrilab, Banglore) and water except, wherever indicated. After randomization into various groups, the rats were acclimatized for a period of seven days in the new environment before initiation of the experiment.
Diabetes was induced by streptozotocin (STZ) injection. STZ in rats leads to the development of a clinical syndrome characterized by hyperglycemia, excessive osmotic diuresis, and loss of weight, which is similar to human diabetes. Moreover, the STZ-diabetic rat develops the usual chronic microvascular complications (nephropathy, peripheral and autonomic neuropathy) as observed in diabetic patients. Schaan, B. D., et al. Braz J Med Biol Res, 37:12:1895-1902 (2004).
Animals were made diabetic by injecting 50-60 mg/kg STZ dissolved in sodium citrate buffer, pH 4.5. Rats were fasted overnight before STZ administration. STZ-treated rats were used only when they developed elevated plasma glucose levels (confirmed by qualitative measurements of blood glucose >300 mg% 48 h after injection). Metabolic control was evaluated on the basis of plasma glucose and animal weight at the end of the experiments.
The diabetic rats were randomly divided in to six groups consisting of 4 animals. The lyophilized lectin coupled insulin loaded solid lipid nanoparticle formulations (F1, F2, F3 and F4), mentioned in the above examples, containing 10 IU/Kg of total insulin were administered orally to the respective groups after re-dispersing in the appropriate volume of physiological saline solution. The fifth group was treated with 10 IU/Kg of insulin via subcutaneous route and the sixth group was the control group. The control diabetic rats were not treated with insulin or any drug, but an equivalent volume of physiological saline solution was given orally.
The blood samples were collected at each scheduled time intervals. The plasma was separated by centrifugation and serum glucose levels were estimated as described in Bergmeyer, H. U. Methods of Enzymatic Analysis New York: Academic (1974). Plasma samples of all animals were stored at −80° C. until analyzed.

insulin [Unencapsulated Insulin] was tested, and the “Mean % Reduction in serum Glucose Levels” value (2.0 hrs) was 8.2 ± 2.3%, the “Mean % Reduction in serum Glucose Levels” value (3.0 hrs) was 15.1 ± 1.2% and the “Mean % Reduction in serum Glucose Levels” value (4.0 hrs) was 23.2 ± 3.2%. For the same substance, the “Mean % Reduction in serum Glucose Levels” value (5.0 hrs) was 36.2 ± 1.2%, the “Mean % Reduction in serum Glucose Levels” value (6.0 hrs) was 12.1 ± 4.3% and the “Mean % Reduction in serum Glucose Levels” value (8.0 hrs) was 19.2 ± 3.3%. The “Mean % Reduction in serum Glucose Levels” value (10.0 hrs) was 25.1 ± 3.2% and the “Mean % Reduction in serum Glucose Levels” value (12.0 hrs) was 29.2 ± 1.2%.
